{"source": "patent US7220746B2", "about": "“Pyrrolidinedione substituted piperidine-phthalazones as PDE4 inhibitors” (Altana Pharma AG, priority 2002, dated 2007)", "tested_on": "PDE4 activity (cytosol from human neutrophils)", "assay": "Inhibition of PDE4 activity", "assay_type": "biochemical", "design": "unit not given here", "details": "0.5 μM cAMP, Motapizone 1 μM included to suppress PDE3", "description": "Method for Measuring Inhibition of PDE4 Activity\nPDE4 activity was determined as described by Thompson et al. (Adv Cycl Nucl Res 10: 69–92, 1979) with some modifications (Bauer and Schwabe, Naunyn-Schmiedeberg's Arch Pharmacol 311: 193–198, 1980). At a final assay volume of 200 μl (96well microliter plates) the assay mixture contained 20 mM Tris (pH 7.4), 5 mM MgCl2, 0.5 μM cAMP, [^3H]CAMP (about 30,000 cpm/assay), the test compound and an aliquot of cytosol from human neutrophils which mainly contains PDE4 activity as described by Schudt et al. (Naunyn-Schmiedeberg's Arch Pharmacol 344: 682–690, 1991); the PDE3-specific inhibitor Motapizone (1 μM) was included to suppress PDE3 activity originating from contaminating platelets. […]\nAfter preincubation for 5 min at 37° C., the reaction was started by the addition of substrate (cAMP) and the assays were incubated for further 15 min at 37° C. […] The columns were eluted with 2 ml of 30 mM ammonium formiate (pH 6.0) and the eluate was counted for radioactivity. Results were corrected for blank values (measured in the presence of denatured protein) which were below 5% of total radioactivity. […] The IC50-values for the compounds according to the invention for the inhibition of the PDE4 activity were determined from the concentration-inhibition curves by nonlinear-regression.", "data": [{"smiles": "COc1ccc(C2=NN(C3CCN(C(=O)CN4C(=O)CCC4=O)CC3)C(=O)[C@@H]3CC=CC[C@H]23)cc1OC", "note": "[Example 1, 1-(2-{4-[(4aS,8aR)-4-(3,4-Dimethoxy-phenyl)-1-oxo-4a,5,8,8a-tetrahydro-yl]-piperidin-1-yl}-2-oxo-ethyl)-pyrrolidine-2,5-dione]", "values": [{"measurement": "Inhibition of PDE4 activity, −logIC50", "value": 10.66}]}]}
